Measured values as given in patent US12606557B2, “Substituted indoles with inhibitory activity” (UNIVERSITY OF PITTSBURGH—OF THE COMMONWEALTH SYSTEM OF …, priority 2020, dated 2026).
Values joined by “and” are separate entries in the source; they are usually repeats but may differ in a detail not shown here. Equal values may be shown once. Read-outs that look alike come from different tables or passages of the source. Marks after values point to notes of the source that are not given here.

Key:
[1] = tested on: gentamicin-induced AKI in zebrafish larvae; experiment: Gentamicin-induced AKI in zebrafish larvae (zfAKI assay), Kaplan-Meier survival; type: in vivo; conditions: two different doses, compared to the untreated control
From the text: The gentamicin-induced AKI in zebrafish larvae (zfAKI assay), recapitulates injury and proliferation-based repair in mammalian AKI, but allows for higher throughput analysis of compound efficacy in AKI than mouse models. As fish are soaked in compounds, this assay is not subject to drug delivery and absorption problems that occur in early drug discovery in mice. This assay was used as a primary screening assay with the throughput being increased.

[2] = Plasma pharmacokinetics after a single intraperitoneal dose; type: in vivo, male CD1 mice; conditions: for plasma concentrations quantifiable up to: LLOQ 10.38 ng/mL; for concentration at 0.08 hr / concentration at 0.25 hr / concentration at 0.5 hr / concentration at 1 hr / concentration at 2 hr / concentration at 4 hr / concentration at 8 hr / concentration at 24 hr: intraperitoneal
Experimental: The objective of this example was to investigate the plasma pharmacokinetics of UPHH-000171 following a single intraperitoneal dose administration to male CD1 mice at 10 and 50 mg/kg. Eighteen male mice were divided in to two groups with nine animals in each group,
Animals in Group 1 and Group 2 were administered with solution formulation of UPHH-000171 in 5% NMP, 25% Solutol HS-15 and 70% normal saline intraperitoneally at 10 and 50 mg/kg dose, respectively.
The blood samples were collected from set of three mice at each time point in labeled micro centrifuge tube containing K2EDTA solution as anticoagulant at Pre-dose, 0.08, 0.25, 0.5, 1, 2, 4, 8 and 24 hr. Plasma samples were separated by centrifugation of whole blood and stored below −70±10° C. until bioanalysis. All samples were processed for analysis by protein precipitation using acetonitrile and analyzed with fit-for-purpose LC-MS/MS method (LLOQ=10.38 ng/mL). Pharmacokinetic parameters were calculated using the non-compartmental analysis tool of Phoenix WinNonlin® (Version 7.0). Mean pharmacokinetic parameters are summarized below: […]

[3] = target: T1, HDAC8 (Homo sapiens, UniProt Q9BY41); experiment: Cellular thermal shift assay (CETSA) for HDAC8 binding; conditions: compared to a control with no compound, FIG. 1
T1 construct: CETSA uses cell lysates heated to different temperatures and quantifies the target protein in the soluble fraction by western blot; endogenous in cells; host or cells: cell lysate
T1 sequence (Q9BY41 1-377): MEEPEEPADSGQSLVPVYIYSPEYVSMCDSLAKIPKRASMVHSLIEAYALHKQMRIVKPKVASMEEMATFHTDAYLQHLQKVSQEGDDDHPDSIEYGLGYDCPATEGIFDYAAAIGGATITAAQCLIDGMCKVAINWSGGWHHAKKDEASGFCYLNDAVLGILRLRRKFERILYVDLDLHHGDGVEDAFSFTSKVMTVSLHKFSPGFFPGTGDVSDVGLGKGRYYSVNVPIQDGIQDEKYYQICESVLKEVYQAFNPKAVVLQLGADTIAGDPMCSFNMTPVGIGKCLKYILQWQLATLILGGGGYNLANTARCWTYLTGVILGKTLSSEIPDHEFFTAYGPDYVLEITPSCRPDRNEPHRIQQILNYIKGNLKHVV
From the text: Cellular thermal shift assay (CETSA) was developed from the same principles of ligand induced thermal stability assays (TSA) of proteins. During TSA, purified proteins are heated in the absence or presence of ligand and then quickly cooled. Proteins that are bound to ligand are more thermally stable than their unbound counterparts, and these “thermal shifts” can be detected by various methods. CETSA uses cell lysates heated to different temperatures and quantifies the target protein in the soluble fraction by western blot. CETSA is a direct measurement of […] through the measurement of the biophysical properties that stabilized the protein-ligand complex under thermal denaturation. The UPHH-00171 compound was tested in the CETSA assay, specifically for HDAC8 binding.

[4] = male, CD1, mouse, 10 mg/kg IP, plasma
[5] = male, CD1, mouse, 50 mg/kg IP, plasma

Structure (SMILES): COc1ccc(Cn2ccc3ccc(C(=O)NS(C)(=O)=O)cc32)cc1 [UPHH-000171, 1-(4-methoxybenzyl)-N-(methylsulfonyl)-1H-indole-6-carboxamide]
- survival in zfAKI assay [1]: increase survival
- Plasma Concentration, individual animal ([2]; 10 mg/kg IP, 0.08 hr): 9871.25 ng/mL and 2877.79 ng/mL and 7508.44 ng/mL
- Plasma Concentration, individual animal ([2]; 10 mg/kg IP, 0.25 hr): 28861.97 ng/mL and 28672.95 ng/mL
- Plasma Concentration, individual animal ([2]; 10 mg/kg IP, 0.5 hr): 41628.22 ng/mL and 36468.73 ng/mL
- Plasma Concentration, individual animal ([2]; 10 mg/kg IP, 1 hr): 49594.52 ng/mL and 19264.72 ng/mL and 34912.30 ng/mL
- Plasma Concentration, individual animal ([2]; 10 mg/kg IP, 2 hr): 46853.15 ng/mL and 43408.40 ng/mL
- Plasma Concentration, individual animal ([2]; 10 mg/kg IP, 4 hr): 47512.89 ng/mL and 73497.85 ng/mL and 31815.34 ng/mL
- Plasma Concentration, individual animal ([2]; 10 mg/kg IP, 8 hr): 20138.85 ng/mL and 29805.54 ng/mL
- Plasma Concentration, individual animal ([2]; 10 mg/kg IP, 24 hr, animal 7 excluded as an outlier): 2930.59^e ng/mL and 131.01 ng/mL and 68.44 ng/mL
- plasma concentrations quantifiable up to ([2]; 10 mg/kg IP): up to 24 hr
- Plasma Concentration, individual animal ([2]; 50 mg/kg IP, 0.08 hr): 59305.08 ng/mL and 90638.28 ng/mL
- Plasma Concentration, individual animal ([2]; 50 mg/kg IP, 0.25 hr): 31701.46 ng/mL and 171000.65 ng/mL and 182938.71 ng/mL
- Plasma Concentration, individual animal ([2]; 50 mg/kg IP, 0.5 hr): 137922.52 ng/mL and 96505.03 ng/mL and 47522.98 ng/mL
- Plasma Concentration, individual animal ([2]; 50 mg/kg IP, 1 hr): 218799.23 ng/mL and 236020.35 ng/mL
- Plasma Concentration, individual animal ([2]; 50 mg/kg IP, 2 hr): 93162.33 ng/mL and 195094.83 ng/mL and 235858.27 ng/mL
- Plasma Concentration, individual animal ([2]; 50 mg/kg IP, 4 hr): 106201.99 ng/mL and 115510.21 ng/mL
- Plasma Concentration, individual animal ([2]; 50 mg/kg IP, 8 hr): 93195.14 ng/mL and 75070.05 ng/mL
- Plasma Concentration, individual animal ([2]; 50 mg/kg IP, 24 hr): 1407.79 ng/mL and 391.49 ng/mL and 1081.42 ng/mL
- plasma concentrations quantifiable up to ([2]; 50 mg/kg IP): up to 24 hr
- dose related increase in plasma exposure (AUClast) ([2]; from 10 mg/kg to 50 mg/kg IP): 3 fold
- concentration at 0.08 hr ([2]; male, CD1, mouse, plasma, 10 mg/kg, 10 mg/kg IP, 0.08 hr, read-out: Plasma Concentration, Mean): 6.75 µg/mL
- concentration at 0.25 hr ([2]; male, CD1, mouse, plasma, 10 mg/kg, 10 mg/kg IP, 0.25 hr, read-out: Plasma Concentration, Mean): 30.2 µg/mL
- concentration at 0.25 hr ([2]; male, CD1, mouse, plasma, 10 mg/kg, 10 mg/kg IP, 0.25 hr, read-out: Plasma Concentration, individual animal): 33 µg/mL
- concentration at 0.5 hr ([2]; male, CD1, mouse, plasma, 10 mg/kg, 10 mg/kg IP, 0.5 hr, read-out: Plasma Concentration, Mean): 41.2 µg/mL
- concentration at 0.5 hr ([2]; male, CD1, mouse, plasma, 10 mg/kg, 10 mg/kg IP, 0.5 hr, read-out: Plasma Concentration, individual animal): 45.6 µg/mL
- concentration at 1 hr ([2]; male, CD1, mouse, plasma, 10 mg/kg, 10 mg/kg IP, 1 hr, read-out: Plasma Concentration, Mean): 34.6 µg/mL
- concentration at 2 hr ([2]; male, CD1, mouse, plasma, 10 mg/kg, 10 mg/kg IP, 2 hr, read-out: Plasma Concentration, Mean): 47.9 µg/mL
- concentration at 2 hr ([2]; male, CD1, mouse, plasma, 10 mg/kg, 10 mg/kg IP, 2 hr, read-out: Plasma Concentration, individual animal): 53.6 µg/mL
- concentration at 4 hr ([2]; male, CD1, mouse, plasma, 10 mg/kg, 10 mg/kg IP, 4 hr, read-out: Plasma Concentration, Mean): 50.9 µg/mL
- concentration at 8 hr ([2]; male, CD1, mouse, plasma, 10 mg/kg, 10 mg/kg IP, 8 hr, read-out: Plasma Concentration, Mean): 28.4 µg/mL
- concentration at 8 hr ([2]; male, CD1, mouse, plasma, 10 mg/kg, 10 mg/kg IP, 8 hr, read-out: Plasma Concentration, individual animal): 35.1 µg/mL
- concentration at 24 hr ([2]; male, CD1, mouse, plasma, 10 mg/kg, 10 mg/kg IP, 24 hr, average of two values): 0.0997 µg/mL
- concentration at 0.08 hr ([2]; male, CD1, mouse, plasma, 50 mg/kg, 50 mg/kg IP, 0.08 hr, read-out: Plasma Concentration, Mean): 79.6 µg/mL
- concentration at 0.08 hr ([2]; male, CD1, mouse, plasma, 50 mg/kg, 50 mg/kg IP, 0.08 hr, read-out: Plasma Concentration, individual animal): 89 µg/mL
- concentration at 0.25 hr ([2]; male, CD1, mouse, plasma, 50 mg/kg, 50 mg/kg IP, 0.25 hr, read-out: Plasma Concentration, Mean): 129 µg/mL
- concentration at 0.5 hr ([2]; male, CD1, mouse, plasma, 50 mg/kg, 50 mg/kg IP, 0.5 hr, read-out: Plasma Concentration, Mean): 94 µg/mL
- concentration at 1 hr ([2]; male, CD1, mouse, plasma, 50 mg/kg, 50 mg/kg IP, 1 hr, read-out: Plasma Concentration, Mean): 228 µg/mL
- concentration at 1 hr ([2]; male, CD1, mouse, plasma, 50 mg/kg, 50 mg/kg IP, 1 hr, read-out: Plasma Concentration, individual animal): 229 µg/mL
- concentration at 2 hr ([2]; male, CD1, mouse, plasma, 50 mg/kg, 50 mg/kg IP, 2 hr, read-out: Plasma Concentration, Mean): 175 µg/mL
- concentration at 4 hr ([2]; male, CD1, mouse, plasma, 50 mg/kg, 50 mg/kg IP, 4 hr, read-out: Plasma Concentration, Mean): 116 µg/mL
- concentration at 4 hr ([2]; male, CD1, mouse, plasma, 50 mg/kg, 50 mg/kg IP, 4 hr, read-out: Plasma Concentration, individual animal): 128 µg/mL
- concentration at 8 hr ([2]; male, CD1, mouse, plasma, 50 mg/kg, 50 mg/kg IP, 8 hr, read-out: Plasma Concentration, Mean): 90.1 µg/mL
- concentration at 8 hr ([2]; male, CD1, mouse, plasma, 50 mg/kg, 50 mg/kg IP, 8 hr, read-out: Plasma Concentration, individual animal): 102 µg/mL
- concentration at 24 hr ([2]; male, CD1, mouse, plasma, 50 mg/kg, 50 mg/kg IP, 24 hr): 0.96 µg/mL
- AUC(0-t) [2, 4]: 558 µg·h/mL
- Cmax [2, 4]: 50.9 µg/mL
- Tmax [2, 4]: 4 h
- AUC(0-inf) [2, 5]: 1770 µg·h/mL
- AUC(0-t) [2, 5]: 1760 µg·h/mL
- Cmax [2, 5]: 228 µg/mL
- Tmax [2, 5]: 1 h
- thermal stability of HDAC8 in CETSA ([3]; listed as UPHH171): increased thermal stability
- thermal stability of HDAC8 in CETSA ([3]; listed as UPHH-00171): increase in thermal stability
